According to article PMC10298626 (International Journal of Molecular Sciences, 2023):
Marks after values point to notes of the source that are not given here.

What was measured:
Assay type in all cases: cell-based, Mouse
[1] = test system: LPS-stimulated RAW264.7 cells; test: NO production (Griess reagent) in LPS-stimulated RAW264.7 cells
Description: A high concentration of NO promotes the synthesis of inflammatory mediators, leading to an inflammatory response, and has been reported to be a cause of various immune diseases. Therefore, this study was conducted to investigate the effect of coumarin derivatives on the production of NO induced by LPS stimulation in RAW264.7 cells. The cells were treated with coumarin derivatives at concentrations of 20, 40, and 80 μM for 2 h. Then, the cells were treated with LPS. After 20 h, the culture supernatant was recovered, and the amount of NO was measured. […] The anti-inflammatory activity of these derivatives depended on the position of the substituted group rather than the electron density of the substituted group.
The Griess reagent was used to measure NO production. RAW264.7 cells were seeded into a 96-well plate and cultured for 24 h. The cells were treated with 20, 40, and 80 μM of coumarin derivatives, cultured for 2 h, and then cultured with LPS (500 ng/mL) for 20 h. The same amount of cell supernatant and Griess reagent were used for the reaction, and absorbance was measured at 540 nm.

[2] = test system: IL-6; test: IL-6 production (ELISA) in LPS-stimulated RAW264.7 cells; conditions: 20, 40, and 80 μM; 2 h pretreatment, LPS 500 ng/mL 20 h; concentration-dependent
Description: (§1) Macrophages stimulated by pathogens and cytokines are activated and play an important role in regulating the immune response, inflammatory response, and metabolism. LPS-activated RAW264.7 cells were treated with 20, 40, or 80 μM of coumarin derivative 2 and cultured for 24 h, and the levels of TNF-α and IL-6 in the culture medium were analyzed.
(§2) RAW264.7 cells were seeded into 96-well plates and cultured for 24 h. After 2 h of treatment with 20, 40, or 80 μM of coumarin compound derivative 2, the cells were incubated with LPS (500 ng/mL) for 20 h. ELISA kits (R & D Systems, Minneapolis, MN, USA) were used to collect and analyze the cell supernatants for TNF-α and IL-6.
(§3) Figure 3 Effects of coumarin derivative 2 on IL-6 and TNF-α production and mRNA expression in LPS-stimulated RAW264.7 cells. (a) Effect of coumarin derivative 2 on TNF-α and IL-6 production in RAW264.7 cells. The RAW264.7 cells (1 × 10^5/well, 96-well plates) were pretreated with coumarin derivative 2 (20, 40, and 80 μM) for 2 h and incubated with LPS (500 ng/mL) for 20 h. An ELISA kit was used to analyze cell supernatants for TNF-α and IL-6. (b) Effect of coumarin derivative 2 on mRNA expression of IL-6 and TNF-α in RAW264.7 cells. […] IL-6 and TNF-α mRNA expression levels were measured via a real-time quantitative reverse transcription polymerase chain reaction.

[3] = test system: TNF-α; test: TNF-α production (ELISA) in LPS-stimulated RAW264.7 cells; conditions: 20, 40, and 80 μM; 2 h pretreatment, LPS 500 ng/mL 20 h; concentration-dependent
Description: as §1, §2, §3

[4] = test system: IL-6 mRNA; test: IL-6 mRNA expression (qRT-PCR) in LPS-stimulated RAW264.7 cells; conditions: 20, 40, and 80 μM; 2 h pretreatment, LPS 500 ng/mL 6 h
Description: (§4) RAW264.7 cells were seeded into a 6-well plate (2 × 10^6 cells/well) and cultured for 24 h. The cells were treated with coumarin derivative 2 at 20, 40, and 80 μM and cultured for 2 h and with LPS (500 ng/mL) for 6 h.
(§5) The cells were washed with phosphate-buffered saline (PBS) and lysed with the RNeasy Mini kit (Qiagen, Hilden, Germany) for RNA isolation. RNA was converted to cDNA using the AccuPower reverse transcriptase Premix Kit (Bioneer, Daejeon, Republic of Korea). A Power SYBR Green PCR Master Mix (Applied Biosystems, Waltham, MN, USA) was used to perform polymerase chain reaction amplification. Amplification conditions were selected within the Quant 3 PCR system (Applied Biosystems). The data were normalized to the amount of glyceraldehyde 3-phosphate dehydrogenase.
as §3, with “IL-6.” for “IL-6. (b) Effect of coumarin derivative 2 on mRNA expression of IL-6 and TNF-α in RAW264.7 cells.”

[5] = test system: TNF-α mRNA; test: TNF-α mRNA expression (qRT-PCR) in LPS-stimulated RAW264.7 cells; conditions: 20, 40, and 80 μM; 2 h pretreatment, LPS 500 ng/mL 6 h
Description: as §4, §5
as §3, with “IL-6.” for “IL-6. (b) Effect of coumarin derivative 2 on mRNA expression of IL-6 and TNF-α in RAW264.7 cells.”

[6] = test system: JNK; test: LPS-induced phosphorylation of JNK (immunoblotting) in RAW264.7 cells; conditions: 20, 40, and 80 μM pretreatment 2 h; LPS 500 ng/mL 30 min
Description: RAW264.7 cells were seeded into 6-well plates (2 × 10^6 cells/well) and incubated for 24 h. The cells were incubated with 20, 40, and 80 μM of coumarin derivative 2 for 2 h, and then LPS (500 ng/mL) was added for 30 min (for phosphorylation of ERK, JNK, p38, and p65) and 24 h (for protein expression of iNOS).
The cells were washed with PBS and lysed with radioimmunoprecipitation assay buffer containing 1 mM dithiothreitol (Wako, Tokyo, Japan), phosphatase inhibitor cocktail, 1 mM phenylmethylsulfonylfluoride, 1 mM sodium orthovanadate (Sigma), and 10 mM β-glycerophosphate (Sigma). The extracted proteins were centrifuged at 13,000× g rpm, separated via sodium dodecyl sulfate polyacrylamide gel electrophoresis, and transferred to polyvinylidene fluoride membranes. Nonspecific proteins were blocked by adding 5% skim milk. After blocking, primary antibodies were incubated overnight at 4 °C. After washing with the PBS-T buffer, the secondary antibodies were treated at room temperature for 2 h. For detection, the antibodies were developed with Super Signal® West Femto Substrate (ThermoFisher, Waltham, MN, USA) and analyzed on a Fusion Solo Chemiluminescence System (Vilber Lourmat, Paris, France) ECL detection system.
Figure 5 Inhibitory effects of coumarin derivative 2 on LPS-induced phosphorylation of MAPKs and NF-κB p65 in RAW264.7 cells. […]

N#CC1=C(N)Oc2c(c(=O)oc3ccccc23)C1c1cccc(F)c1 (stereo not shown) [Coumarin derivative 2]
NO production, Average ([1]; 20 μM for 2 h, then LPS (500 ng/mL) 20 h, LPS alone 25.9, control 3.1): 22.53 µM | NO production, Average (μM) ([1]; 40 μM for 2 h, then LPS (500 ng/mL) 20 h, LPS alone 25.9, control 3.1): 15.24 *** μM | NO production, Average (μM) ([1]; 80 μM for 2 h, then LPS (500 ng/mL) 20 h, LPS alone 25.9, control 3.1): 10.17 *** μM | Anti-inflammatory effect (inhibition of NO secretion), in words ([1]; 20, 40, and 80 μM, compared with LPS-only treatment): inhibited NO secretion in a concentration-dependent manner | IC50 ([1]; Mus musculus, RAW264.7, read-out: IC50 of NO production inhibition): 33.4 µM | LPS-induced IL-6 level [2]: significantly reduced | LPS-induced TNF-α level [3]: significantly reduced | IL-6 mRNA expression [4]: significantly suppressed | TNF-α mRNA expression [5]: significantly suppressed | Phosphorylation of JNK [6]: inhibited
